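GI50: concentration for 50% inhibition of growth. Definition used: TGI = concentration required for complete inhibition of growth.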
Key:
Assay in all cases: NCI anticancer screen, dose series, 384-well format
U251 glioblastoma = tested on: U251 glioblastoma
UO-31 renal = tested on: UO-31 renal
MDA-MB-468 breast = tested on: MDA-MB-468 breast
NCI-H460 NSCLC = tested on: NCI-H460 NSCLC
SK-OV-3 ovarian = tested on: SK-OV-3 ovarian
MDA-MB-231 breast = tested on: MDA-MB-231 breast
HOP-62 NSCLC = tested on: HOP-62 NSCLC
UACC-62 melanoma = tested on: UACC-62 melanoma
NCI-H226 lung = tested on: NCI-H226 lung
MCF7 breast = tested on: MCF7 breast
CCRF-CEM leukemia = tested on: CCRF-CEM leukemia
M14 melanoma = tested on: M14 melanoma
SNB-75 CNS = tested on: SNB-75 CNS
TK-10 renal = tested on: TK-10 renal
HCT-15 colon = tested on: HCT-15 colon
SK-MEL-28 melanoma = tested on: SK-MEL-28 melanoma
HCC-2998 colon = tested on: HCC-2998 colon
SF-268 CNS = tested on: SF-268 CNS
A549 NSCLC = tested on: A549 NSCLC
NCI-H23 lung = tested on: NCI-H23 lung
SN12C renal = tested on: SN12C renal
HOP-92 NSCLC = tested on: HOP-92 NSCLC
CAKI-1 renal = tested on: CAKI-1 renal
KM12 colon = tested on: KM12 colon
A498 renal = tested on: A498 renal
786-0 renal = tested on: 786-0 renal
NCI-H322M lung = tested on: NCI-H322M lung
OVCAR-4 ovarian = tested on: OVCAR-4 ovarian
COLO 205 colon = tested on: COLO 205 colon
K-562 leukemia = tested on: K-562 leukemia
OVCAR-8 ovarian = tested on: OVCAR-8 ovarian
UACC-257 melanoma = tested on: UACC-257 melanoma
MOLT-4 leukemia = tested on: MOLT-4 leukemia
OVCAR-5 ovarian = tested on: OVCAR-5 ovarian
SF-539 CNS = tested on: SF-539 CNS
IGROV1 ovarian = tested on: IGROV1 ovarian
BT-549 breast = tested on: BT-549 breast
SNB-19 CNS = tested on: SNB-19 CNS
HT29 colon = tested on: HT29 colon
NCI-H522 lung = tested on: NCI-H522 lung
MALME-3M melanoma = tested on: MALME-3M melanoma
T-47D breast = tested on: T-47D breast
LOX IMVI melanoma = tested on: LOX IMVI melanoma
PC-3 prostate = tested on: PC-3 prostate
ACHN renal = tested on: ACHN renal
HS 578T breast = tested on: HS 578T breast
SK-MEL-5 melanoma = tested on: SK-MEL-5 melanoma
DU-145 prostate = tested on: DU-145 prostate
OVCAR-3 ovarian = tested on: OVCAR-3 ovarian
EKVX NSCLC = tested on: EKVX NSCLC
NCI/ADR-RES ovarian = tested on: NCI/ADR-RES ovarian
HCT-116 colon = tested on: HCT-116 colon
RPMI-8226 leukemia = tested on: RPMI-8226 leukemia
SW-620 colon = tested on: SW-620 colon
MDA-MB-435 melanoma = tested on: MDA-MB-435 melanoma
RXF 393 renal = tested on: RXF 393 renal
HL-60(TB) leukemia = tested on: HL-60(TB) leukemia
SF-295 CNS = tested on: SF-295 CNS
SR leukemia = tested on: SR leukemia
SK-MEL-2 melanoma = tested on: SK-MEL-2 melanoma

SMILES: C=CC(=O)Nc1cc2c(Nc3ccc(F)c(Cl)c3)ncnc2cc1OCCCN1CCOCC1
- GI50 (U251 glioblastoma): 1910 nM
- TGI (U251 glioblastoma): 3790 nM
- GI50 (UO-31 renal): 1170 nM
- TGI (UO-31 renal): 4220 nM
- GI50 (MDA-MB-468 breast): < 10 nM
- GI50 (NCI-H460 NSCLC): 1510 nM
- TGI (NCI-H460 NSCLC): 2900 nM
- GI50 (SK-OV-3 ovarian): 1060 nM
- TGI (SK-OV-3 ovarian): 2670 nM
- GI50 (MDA-MB-231 breast): 1530 nM
- TGI (MDA-MB-231 breast): 3770 nM
- GI50 (HOP-62 NSCLC): 1640 nM
- TGI (HOP-62 NSCLC): 3700 nM
- GI50 (UACC-62 melanoma): 1450 nM
- TGI (UACC-62 melanoma): 2780 nM
- GI50 (NCI-H226 lung): 1960 nM
- TGI (NCI-H226 lung): 4700 nM
- GI50 (MCF7 breast): 1140 nM
- TGI (MCF7 breast): 2520 nM
- GI50 (CCRF-CEM leukemia): 1200 nM
- TGI (CCRF-CEM leukemia): 2460 nM
- GI50 (M14 melanoma): 1580 nM
- TGI (M14 melanoma): 2950 nM
- GI50 (SNB-75 CNS): 1120 nM
- TGI (SNB-75 CNS): 2910 nM
- GI50 (TK-10 renal): 36.8 nM
- TGI (TK-10 renal): 2090 nM
- GI50 (HCT-15 colon): 1190 nM
- TGI (HCT-15 colon): 2470 nM
- GI50 (SK-MEL-28 melanoma): 2030 nM
- TGI (SK-MEL-28 melanoma): 3520 nM
- GI50 (HCC-2998 colon): 1320 nM
- TGI (HCC-2998 colon): 2630 nM
- GI50 (SF-268 CNS): 209 nM
- TGI (SF-268 CNS): 1650 nM
- GI50 (A549 NSCLC): 1320 nM
- TGI (A549 NSCLC): 2710 nM
- GI50 (NCI-H23 lung): 1470 nM
- TGI (NCI-H23 lung): 2800 nM
- GI50 (SN12C renal): 267 nM
- TGI (SN12C renal): 1910 nM
- GI50 (HOP-92 NSCLC): 1400 nM
- TGI (HOP-92 NSCLC): 2930 nM
- GI50 (CAKI-1 renal): 462 nM
- TGI (CAKI-1 renal): 1990 nM
- GI50 (KM12 colon): 1580 nM
- TGI (KM12 colon): 3020 nM
- GI50 (A498 renal): 424 nM
- TGI (A498 renal): 1910 nM
- GI50 ([…]-0 renal): 1160 nM
- TGI (786-0 renal): 2490 nM
- GI50 (NCI-H322M lung): < 10 nM
- TGI (NCI-H322M lung): 1290 nM
- GI50 (OVCAR-4 ovarian): 2020 nM
- TGI (OVCAR-4 ovarian): 6000 nM
- GI50 (COLO 205 colon): 1600 nM
- TGI (COLO 205 colon): 3110 nM
- GI50 (K-562 leukemia): 1210 nM
- TGI (K-562 leukemia): 2490 nM
- GI50 (OVCAR-8 ovarian): 1440 nM
- TGI (OVCAR-8 ovarian): 2790 nM
- GI50 (UACC-257 melanoma): 1310 nM
- TGI (UACC-257 melanoma): 2620 nM
- GI50 (MOLT-4 leukemia): 933 nM
- TGI (MOLT-4 leukemia): 2150 nM
- GI50 (OVCAR-5 ovarian): 1740 nM
- TGI (OVCAR-5 ovarian): 13600 nM
- GI50 (SF-539 CNS): 1370 nM
- TGI (SF-539 CNS): 2680 nM
- GI50 (IGROV1 ovarian): < 10 nM
- TGI (IGROV1 ovarian): 838 nM
- GI50 (BT-549 breast): 1060 nM
- TGI (BT-549 breast): 2270 nM
- GI50 (SNB-19 CNS): 1850 nM
- TGI (SNB-19 CNS): 4140 nM
- GI50 (HT29 colon): 1550 nM
- TGI (HT29 colon): 3000 nM
- GI50 (NCI-H522 lung): 65.3 nM
- TGI (NCI-H522 lung): 454 nM
- GI50 (MALME-3M melanoma): 1720 nM
- TGI (MALME-3M melanoma): 3130 nM
- GI50 (T-47D breast): 54.7 nM
- TGI (T-47D breast): 1440 nM
- GI50 (LOX IMVI melanoma): 1510 nM
- TGI (LOX IMVI melanoma): 2870 nM
- GI50 (PC-3 prostate): 1690 nM
- TGI (PC-3 prostate): 3110 nM
- GI50 (ACHN renal): 13.1 nM
- TGI (ACHN renal): 1660 nM
- GI50 (HS 578T breast): 1220 nM
- TGI (HS 578T breast): 2490 nM
- GI50 (SK-MEL-5 melanoma): 1410 nM
- TGI (SK-MEL-5 melanoma): 2750 nM
- GI50 (DU-145 prostate): 1070 nM
- TGI (DU-145 prostate): 4190 nM
- GI50 (OVCAR-3 ovarian): 1030 nM
- TGI (OVCAR-3 ovarian): 2220 nM
- GI50 (EKVX NSCLC): 50.7 nM
- TGI (EKVX NSCLC): 1930 nM
- GI50 (NCI/ADR-RES ovarian): 1450 nM
- TGI (NCI/ADR-RES ovarian): 2870 nM
- GI50 (HCT-116 colon): 1760 nM
- TGI (HCT-116 colon): 3260 nM
- GI50 (RPMI-8226 leukemia): 1220 nM
- TGI (RPMI-8226 leukemia): 2490 nM
- GI50 (SW-620 colon): 1690 nM
- TGI (SW-620 colon): 3080 nM
- GI50 (MDA-MB-435 melanoma): 2420 nM
- TGI (MDA-MB-435 melanoma): 5090 nM
- GI50 (RXF 393 renal): 620 nM
- TGI (RXF 393 renal): 2000 nM
- GI50 (HL-60(TB) leukemia): 1220 nM
- TGI (HL-60(TB) leukemia): 2500 nM
- GI50 (SF-295 CNS): 4620 nM
- TGI (SF-295 CNS): 15800 nM

SMILES: O=C(O)c1ccc2c(c1)CCCC(c1ccc(Cl)cc1Cl)=C2c1ccc(O[C@H]2CCN(CCCF)C2)cc1
- GI50 (NCI-H460 NSCLC): 10300 nM
- TGI (NCI-H460 NSCLC): 22200 nM
- GI50 (MDA-MB-231 breast): 14800 nM
- TGI (MDA-MB-231 breast): 28100 nM
- GI50 (UACC-62 melanoma): 13500 nM
- TGI (UACC-62 melanoma): 26300 nM
- GI50 (MCF7 breast): < 10 nM
- GI50 (M14 melanoma): 11100 nM
- TGI (M14 melanoma): 23100 nM
- GI50 (SNB-75 CNS): 12900 nM
- TGI (SNB-75 CNS): 25600 nM
- GI50 (TK-10 renal): 12500 nM
- TGI (TK-10 renal): 25200 nM
- GI50 (SK-MEL-28 melanoma): 11700 nM
- TGI (SK-MEL-28 melanoma): 24000 nM
- GI50 (SF-268 CNS): 14800 nM
- TGI (SF-268 CNS): 28200 nM
- GI50 (A549 NSCLC): 9670 nM
- GI50 (SN12C renal): 14400 nM
- TGI (SN12C renal): 27500 nM
- GI50 (HOP-92 NSCLC): 12300 nM
- TGI (HOP-92 NSCLC): 24800 nM
- GI50 (CAKI-1 renal): 13000 nM
- TGI (CAKI-1 renal): 25700 nM
- GI50 (KM12 colon): 11600 nM
- TGI (KM12 colon): 24200 nM
- GI50 (A498 renal): 6940 nM
- TGI (A498 renal): 19600 nM
- GI50 ([…]-0 renal): 12700 nM
- TGI (786-0 renal): 25300 nM
- GI50 (OVCAR-4 ovarian): 11300 nM
- TGI (OVCAR-4 ovarian): 23500 nM
- GI50 (K-562 leukemia): 7960 nM
- TGI (K-562 leukemia): 20700 nM
- GI50 (MOLT-4 leukemia): 3610 nM
- TGI (MOLT-4 leukemia): 14200 nM
- GI50 (OVCAR-5 ovarian): 15200 nM
- TGI (OVCAR-5 ovarian): 28600 nM
- GI50 (BT-549 breast): 12000 nM
- TGI (BT-549 breast): 24300 nM
- GI50 (SNB-19 CNS): 13100 nM
- TGI (SNB-19 CNS): 26000 nM
- GI50 (HT29 colon): 12200 nM
- TGI (HT29 colon): 24700 nM
- GI50 (NCI-H522 lung): 10300 nM
- TGI (NCI-H522 lung): 21900 nM
- GI50 (PC-3 prostate): 10200 nM
- TGI (PC-3 prostate): 21900 nM
- GI50 (SR leukemia): 2920 nM
- TGI (SR leukemia): 10800 nM
- GI50 (ACHN renal): 11900 nM
- TGI (ACHN renal): 24300 nM
- GI50 (SK-MEL-2 melanoma): 17400 nM
- TGI (SK-MEL-2 melanoma): 31200 nM
- GI50 (HS 578T breast): 3360 nM
- TGI (HS 578T breast): 18100 nM
- GI50 (DU-145 prostate): 13600 nM
- TGI (DU-145 prostate): 26600 nM
- GI50 (OVCAR-3 ovarian): 10100 nM
- TGI (OVCAR-3 ovarian): 21800 nM
- GI50 (HCT-116 colon): 5870 nM
- TGI (HCT-116 colon): 18800 nM
- GI50 (SW-620 colon): 15700 nM
- TGI (SW-620 colon): 29400 nM
- GI50 (MDA-MB-435 melanoma): 12200 nM
- TGI (MDA-MB-435 melanoma): 24600 nM
- GI50 (HL-60(TB) leukemia): 4440 nM
- TGI (HL-60(TB) leukemia): 16000 nM
